# Reference: US12274703B2, “Compositions and methods of treatment for neurological disorders comprising a dementia” (Gliapharm SA, priority 2017, dated 2025)
# How the values were obtained:
# primary astrocytes = assay: Intracellular glycogen quantification, Example 2; format: cell-based, mouse; settings: 10 μM, 3 h (GP-0157: 0.1, 1, 10 μM)
# Method: Primary cultures of cerebrocortical astrocytes were obtained from 1 to 2-day-old OF1 mouse pups (Charles River). Briefly, cortices were isolated and minced in small pieces under a dissecting microscope. The cells were incubated for 30 min at 37° C. in a solution containing 20 U/ml papain, 1 mM L-cysteine and 10 kU/ml DNase I. After dissociation, papain activity was stopped by the addition of fetal calf serum (FCS). Single-cell suspension was then obtained by mechanical dissociation, which consisted in cells trituration in a DMEM D7777 medium supplemented with 44 mm NaHCO3, 10 ml/L antibiotic/antimycotic solution and 10% FCS. The cells were seeded at an average density of ˜10,000 cells/cm2 on poly-D-lysine coated 96- or 12-well culture plates, depending on their use, and grown in DMEM D7777 medium supplemented with 44 mm NaHCO3, 10 ml/L antibiotic/antimycotic solution and 10% FCS at 37° C. in a humidified atmosphere containing 5% CO2/95% air. Culture medium was renewed twice a week. Cells were stimulated and harvested between DIV14 and DIV17, when confluence and cell growth were optimal.
# Astrocytes grown on 12-well plates were used for intracellular glycogen quantifications. Cells were stimulated with Vehicle (DMSO), with compounds of the invention (10 μM), or with a positive control for 180 min, at 37° C. 5% CO2/95% air in D5030 medium complemented with 5 mM D-glucose and 44 mM sodium bicarbonate (pH 7.2). […] At the end of the stimulation, medium was removed and replaced with 600 μl of 30 mM Tris HCl, and stored at −20° C.
# First, the amount of proteins in each sample was quantified to assess whether harvested astrocytes from primary cell cultures yielded enough and equivalent amounts of proteins on each replicates. Proteins were quantified using the micro BCA Protein Assay kit (Thermo Scientific), according to manufacturer's instructions. Next, intracellular glycogen concentrations were quantified using a 250 μl-aliquot of the same stimulated, thawed, and sonicated cell lysate. After an incubation period of 30 min at 90° C. and 400 rpm, 28 μl of a 0.1M acetic acid/sodium acetate buffer (pH 4.6) was added to each lysate aliquots, which were then separated in two. Each split aliquots received either 5 μl of amyloglucosidase or H2O, and incubated for 120 min at 37° C. After centrifugation at 16,000 G for 5 min, 20 μl of supernatant were placed in a 96-well plate, to which 150 μl of a mix containing 0.67 mM ATP, 0.67 mM NADP, 1.8% hexokinase/glucose-6-phosphate dehydrogenase in a 0.1M Tris Buffer-HCl/3.3 mM magnesium (pH 8.1) buffer was added. Fluorescence intensity (340 nm excitation/440 nm emission) was measured using a Safire 2 spectrophotometer. Glucose concentrations were assessed relative to a glucose standard curve, and glycogen concentrations were calculated by subtracting glucose values of samples that had received amyloglucosidase (i.e. that had degraded their glycogen stores) to samples that had not. Intracellular levels of glycogen, which is the main source of glucose storage in the brain, were analyzed in primary astrocytes after treatment with compounds of interest (10 μM, 3 h) (FIG. 5B), and compound GP-0157 (0.1, 1, 10 μM, 3 h) (FIG. 18).
# astrocytes = assay: Intracellular glycogen quantification; format: cell-based, mouse; settings: CDC54K hits; 10 μM, 3 h
# [1] = system: cerebral extracellular lactate; assay: In vivo pharmacodynamics - lactate biosensors; design: species or system mouse; settings: 100 mg/kg per os; AUC ratio vs vehicle
# Method: Extracellular levels of lactate were monitored in vivo using lactate biosensors (Pinnacle Technology), according to the manufacturer's instructions. Cannulae were surgically implanted in mice cerebral motor cortex areas M1/M2 (coordinates: +1.94 mm (to bregma), lateral −1.4 mm (to mideline), ventral −1.0 mm (to dura)) 5-7 days before administration of the compounds. Drugs were administered per os as previously described, and cerebral levels of extracellular lactate were dynamically recorded for 6 hours. Mice were administered vehicle alone first, followed 3 hours later by vehicle or drug (10 or 100 mg/kg). Area Under the Curve (AUC) quantifying the fluctuations of extracellular lactate concentrations for each of the compound tested was calculated using Graphad Prism and the ratio of AUC after drug over Vehicle administration was calculated. Groups of 8 male mice were used for each condition.
# To measure biological effect of lead molecules in vivo in the brain, lactate levels were quantified after administration of the drug by using lactate biosensors implanted in the cortex of freely moving mice.
structure (smiles),measurement,setting,value
Cc1ccccc1NC(=O)C1CCCN(c2ncnc3oc(C)c(C)c23)C1 (stereo not shown) [F228-0422],Mobilization of intracellular glycogen,primary astrocytes,significantly enhance
O=S(=O)(Nc1cc(F)cc(F)c1)c1ccc2ccccc2c1 [T5884038],Mobilization of intracellular glycogen,primary astrocytes,significantly enhance
CCc1nc(-c2csc(S(=O)(=O)NCc3ccc4c(c3)OCO4)c2)no1 [L287-0468],Mobilization of intracellular glycogen,primary astrocytes,significantly enhance
O=C1CCCN1c1ccc(S(=O)(=O)Nc2cccc(/C=C/c3ccccn3)c2)cc1 [T5644989],Mobilization of intracellular glycogen,primary astrocytes,significantly enhance
c1ccc2c(c1)CCN(c1ncnc3sccc13)C2 [T0517-8250],Glycogen (statistical significance of glycogen degradation),astrocytes,ns
same,Mobilization of intracellular glycogen,primary astrocytes,significantly enhance
CC(=O)N1CCc2sc(S(=O)(=O)N3CCN(c4ccccc4C)CC3)cc2C1 [P025-0159],Glycogen (statistical significance of glycogen degradation),astrocytes,ns
same,Cerebral lactate,[1],Significant increase
same,Mobilization of intracellular glycogen,primary astrocytes,significantly enhance
Cc1nc2ccc(NS(=O)(=O)c3cccc(F)c3)cc2s1 [T6937001],Glycogen (statistical significance of glycogen degradation),astrocytes,ns
same,Mobilization of intracellular glycogen,primary astrocytes,significantly enhance
CCn1nccc1-c1csc(S(=O)(=O)Nc2ccc(Cl)cc2F)c1 [L924-1031],Mobilization of intracellular glycogen,primary astrocytes,significantly enhance
COc1ccccc1[N+]1=C2CCCCCN2C(O)(c2ccc(C)cc2)C1 (stereo not shown) [K404-0834],Mobilization of intracellular glycogen,primary astrocytes,significantly enhance
COc1cc(C)c(Cl)cc1S(=O)(=O)NCc1ccncc1 [T5580243],Glycogen (statistical significance of glycogen degradation),astrocytes,ns
same,Cerebral lactate,[1],Significant increase
N#Cc1ccc(C(=O)N2CCC(Nc3ncnc4c3CCC4)C2)cc1 (stereo not shown) [T636-2387],Glycogen (statistical significance of glycogen degradation),astrocytes,ns
same,Cerebral lactate,[1],Significant increase
same,Mobilization of intracellular glycogen,primary astrocytes,significantly enhance
COc1ccc(Nc2nc(N3CCOCC3)c3ccccc3n2)cc1.Cl [T0508-5190],Mobilization of intracellular glycogen,primary astrocytes,significantly enhance
